Measurements published in ChEMBL document CHEMBL4334442, “Effects of Acetylshikonin on the Infection and Replication of Coxsackievirus A16 in Vitro and in Vivo” (J Nat Prod, 2019).
The source made the active and inactive calls. The calls are words filed in the database; no cut-off is given here.

What was measured:
[1] = Toxicity in ICR mouse infected with Coxsackievirus A16 TA271 assessed as increase in body weight at 0.08 uM/L preincubated with viral suspension for 2 hrs followed by intramuscular administration and measured every day; conditions: in vivo, im
[2] = tested on: Coxsackievirus A16; test: Antiviral activity against Coxsackievirus A16 TA271 infected in RD cells assessed as effect on viral load at replication stage at 0.08 uM/L preincubated for 1 hr followed by replacement of medium containing compound for 5 hrs and measured after 48 hrs post infection by RT-PCR analysis; format: functional, cell-based
[3] = tested on: Coxsackievirus A16; test: Antiviral activity against Coxsackievirus A16 TA271 infected in ICR mouse assessed as reduction in inflammatory cell infiltration in hind limb muscle at 2 mg/kg, im after 5 days post infection by H and E staining based histopathological analysis; format: functional, organism-based
[4] = tested on: Coxsackievirus A16; test: Antiviral activity against Coxsackievirus A16 LW614 infected in RD cells assessed as reduction in viral genome copies at 0.08 uM/L preincubated with viral suspension for 2 hrs followed by cell addition and measured at 24 hrs post infection by RT-PCR analysis; format: functional, cell-based
[5] = tested on: Coxsackievirus A16; test: Antiviral activity against Coxsackievirus A16 TA271 infected in ICR mouse assessed as reduction in viral load in heart at 2 mg/kg, im after 3 to 5 days post infection by RT-PCR analysis; format: functional, organism-based
[6] = tested on: Coxsackievirus A16; test: Antiviral activity against Coxsackievirus A16 TA271 infected in ICR mouse assessed as reduction in inflammatory cell infiltration in spinal muscle at 2 mg/kg, im after 5 days post infection by H and E staining based histopathological analysis; format: functional, organism-based
[7] = tested on: Coxsackievirus A16; test: Antiviral activity against Coxsackievirus A16 TA271 infected in RD cells at preinfection stage assessed as cell fragmentation at 0.08 uM/L preincubated with cells for 3 hrs followed by viral infection and measured after 1 hr by inverted microscopic analysis; format: functional, cell-based
[8] = tested on: Coxsackievirus A16; test: Antiviral activity against Coxsackievirus A16 TA271 infected in RD cells at replication stage assessed as increase in intracytoplasmic granules at 0.08 uM/L 1 hr post-infection viral inoculum was removed and cells incubated with medium containing compound and measured after 5 hrs by inverted microscopic analysis; format: functional, cell-based
[9] = tested on: Coxsackievirus A16; test: Antiviral activity against Coxsackievirus A16 TA271 infected in RD cells assessed as inhibition of viral adsorption/entry by measuring reduction in viral load at 0.08 uM/L incubated for 1 hr and measured after 48 hrs post infection by RT-PCR analysis; format: functional, cell-based
[10] = tested on: Coxsackievirus A16; test: Antiviral activity against Coxsackievirus A16 TA271 infected in RD cells at release stage assessed as cell detachment at 0.08 uM/L preincubated with cells for 1 hr followed by replacement of fresh medium containing compounds after 5 hrs post infection and further incubated for 16 hrs post infection by inverted microscopic analysis; format: functional, cell-based
[11] = tested on: Mus musculus; test: Effect on IFN-gamma level in ICR mouse at 2 mg/kg, administered intramuscularly by ELISA; format: functional, organism-based
[12] = tested on: Coxsackievirus A16; test: Antiviral activity against Coxsackievirus A16 TA271 infected in ICR mouse assessed as reduction in muscle fiber breakage in heart at 2 mg/kg, im after 5 days post infection by H and E staining based histopathological analysis; format: functional, organism-based
[13] = tested on: Coxsackievirus A16; test: Antiviral activity against Coxsackievirus A16 TA271 infected in ICR mouse assessed as reduction in viral load in lung at 0.08 uM/L preincubated with viral suspension for 2 hrs followed by intramuscular administration after 3 to 5 days post infection by RT-PCR analysis; format: functional
[14] = tested on: Coxsackievirus A16; test: Antiviral activity against Coxsackievirus A16 TA271 infected in ICR mouse assessed as mouse survival at 2 mg/kg, im measured on day 6 post infection relative to control; format: functional; conditions: Enterovirus A, 144 h
[15] = tested on: Coxsackievirus A16; test: Antiviral activity against Coxsackievirus A16 TA271 infected in ICR mouse assessed as mild alveolar fibrosis in heart at 2 mg/kg, im after 5 days post infection by H and E staining based histopathological analysis; format: functional, organism-based
[16] = tested on: Coxsackievirus A16; test: Antiviral activity against Coxsackievirus A16 TA271 infected in ICR mouse assessed as reduction in lesions in lung at 2 mg/kg, im after 5 days post infection by H and E staining based histopathological analysis; format: functional, organism-based
[17] = tested on: Coxsackievirus A16; test: Antiviral activity against Coxsackievirus A16 TA271 infected in RD cells at replication stage assessed as cell detachment at 0.08 uM/L 1 hr post-infection viral inoculum was removed and cells incubated with medium containing compound and measured after 5 hrs by inverted microscopic analysis; format: functional, cell-based
[18] = tested on: Coxsackievirus A16; test: Antiviral activity against Coxsackievirus A16 TA271 infected in RD cells at preinfection stage assessed as appearance of rounded cells at 0.08 uM/L preincubated with cells for 3 hrs followed by viral infection and measured after 1 hr by inverted microscopic analysis; format: functional, cell-based
[19] = tested on: Coxsackievirus A16; test: Antiviral activity against Coxsackievirus A16 TA271 infected in ICR mouse assessed as reduction in viral load in hind limb muscle at 0.08 uM/L preincubated with viral suspension for 2 hrs followed by intramuscular administration after 3 to 5 days post infection by RT-PCR analysis; format: functional
[20] = tested on: Coxsackievirus A16; test: Antiviral activity against Coxsackievirus A16 TA271 infected in ICR mouse assessed as reduction in lesions in spinal muscle at 2 mg/kg, im after 5 days post infection by H and E staining based histopathological analysis; format: functional, organism-based
[21] = tested on: Coxsackievirus A16; test: Antiviral activity against Coxsackievirus A16 TA271 infected in ICR mouse assessed as mouse survival at 0.08 uM/L preincubated with viral suspension for 2 hrs followed by intramuscular administration and measured on day 7 post infection relative to control; format: functional; conditions: Enterovirus A, TA271, im
[22] = tested on: Coxsackievirus A16; test: Antiviral activity against Coxsackievirus A16 TA271 infected in ICR mouse assessed as reduction in lesions in hind limb muscle at 2 mg/kg, im after 5 days post infection by H and E staining based histopathological analysis; format: functional, organism-based
[23] = tested on: Coxsackievirus A16; test: Antiviral activity against Coxsackievirus A16 TA271 infected in ICR mouse assessed as reduction in viral load in lung at 2 mg/kg, im after 3 to 5 days post infection by RT-PCR analysis; format: functional, organism-based
[24] = tested on: Coxsackievirus A16; test: Antiviral activity against Coxsackievirus A16 LW2 infected in RD cells assessed as reduction in viral genome copies at 0.08 uM/L preincubated with viral suspension for 2 hrs followed by cell addition and measured at 24 hrs post infection by RT-PCR analysis; format: functional, cell-based
[25] = tested on: Coxsackievirus A16; test: Antiviral activity against Coxsackievirus A16 TA271 infected in ICR mouse assessed as mild alveolar wall thickening in spinal muscle at 2 mg/kg, im after 5 days post infection by H and E staining based histopathological analysis; format: functional, organism-based
[26] = tested on: Coxsackievirus A16; test: Antiviral activity against Coxsackievirus A16 TA271 infected in ICR mouse assessed as reduction in virus-induced IFN-gamma level at 0.08 uM/L preincubated with viral suspension for 2 hrs followed by intramuscular administration after 3 days post infection by ELISA; format: functional
[27] = tested on: Coxsackievirus A16; test: Antiviral activity against Coxsackievirus A16 TA271 infected in ICR mouse assessed as mild alveolar wall thickening in lung at 2 mg/kg, im after 5 days post infection by H and E staining based histopathological analysis; format: functional, organism-based
[28] = tested on: Coxsackievirus A16; test: Antiviral activity against Coxsackievirus A16 TA271 infected in ICR mouse assessed as reduction in muscle fiber breakage in lung at 2 mg/kg, im after 5 days post infection by H and E staining based histopathological analysis; format: functional, organism-based

In the case of `CC(=O)OC(CC=C(C)C)C1=CC(=O)c2c(O)ccc(O)c2C1=O` (stereo not drawn), the Activity [1] is reported as “Non-Toxic”, the Activity [2] is reported as “inactive” and the Activity [3] is reported as “Active”. The Activity [4] was “Active”, the Activity [5] was “Active” and the Activity [6] was “Active”. For the same compound, the Activity [7] was “inactive”, the Activity [8] was “inactive” and the Activity [9] was “Active”. For the same compound, the Activity [10] was “inactive”, the Activity [11] was “inactive” and the Activity [12] was “Active”. For the same compound, the Activity [13] was “Active”, the survival at 2 mg/kg [14] was 50% and the Activity [15] was “Active”. The Activity [16] was “Active”, the Activity [17] was “inactive” and the Activity [18] was “inactive”. The Activity [19] was “Active”, the Activity [20] was “Active” and the survival at 0.08 µM [21] was 70%. The Activity [22] was “Active”, the Activity [23] was “Active” and the Activity [24] was “Active”. The Activity [25] was “Active”, the Activity [26] was “Active” and the Activity [27] was “Active”. The Activity [28] was “Active”.
